Measured values from patent US8541442B2, “Indole derivatives as anticancer agents” (Janssen Pharmaceutica N.V., priority 2009, dated 2013).

Tests used:
[1] = tested on: p53 in A2780 cells; assay: p53 ELISA (preservation of p53 in A2780 cells); assay type: cell-based, human; conditions: 16 hours treatment; for minimal effective concentration: Homo sapiens, A2780, 16 h, read-out: p53-elisa LAD (lowest dose giving at least 140% of the value for p53 present in the control)
Description: The capacity of the present compounds to preserve p53 in A2780 cells was measured with the p53 enzyme linked immunosorbent assay. The p53 assay is a “sandwich” enzyme immunoassay employing two polyclonal antibodies. A polyclonal antibody, specific for the p53 protein, has been immobilized onto the surface of the plastic wells. Any p53 present in the sample to be assayed will bind to the capture antibody. The biotinylated detector polyclonal antibody also recognizes p53 protein, and will bind to any p53, which has been retained by the capture antibody. The detector antibody, in turn, is bond by horseradish peroxidase-conjugated streptavidin. The horseradish peroxidase catalyses the conversion of the chromogenic substrate o-phenylene diamine, the intensity of which is proportional to the amount of p53 protein bond to the plate. The colored reaction product is quantified using a spectrophotometer. Quantitation is achieved by the construction of a standard curve using known concentrations of purified recombinant HIS tagged p53 protein (see example C.1.).
A2780 cells (ATCC) were cultivated in RPMI 1640 supplemented with 10% fetal calf serum (FCS), 2 mM L-glutamine and gentamycin at 37° C. in a humidified incubator with 5% CO2.
A2780 cells were seeded at 20.000 cells per well in a 96 well plate, cultured for 24 hours and treated with compound for 16 hours at 37° C. in a humidified incubator. After incubation, the cells were washed once with phosphate-buffered saline and 30 μl, per well, low salt RIPA buffer (20 mM tris, pH7.0, 0.5 mM EDTA, 1% Nonidet P40, 0.5% DOC, 0.05% SDS, 1 mM PMSF, 1 μg/ml aprotinin and 0.5 μ/ml leupeptin) was added. Plates were placed on ice for 30 minutes to complete the lysis. p53 protein was detected in de lysates by using the sandwich ELISA, described below.
High binding polystyrene EIA/RIA 96 well plates (Costar 9018) were coated with the capture antibody pAb1801 (Abcam ab28-100) at a concentration of 1 μg/ml in coating buffer (0.1 M NaHCO3 pH8.2), 50 μl per well. The antibody was allowed to adhere overnight at 4° C. Coated plates were washed once with phosphate-buffered saline (PBS)/0.05% Tween 20 and 300 μl of blocking buffer (PBS, 1% bovine serum albumins (BSA)) was added, for an incubation period of 2 hours at room temperature. Dilutions of purified recombinant HIS tagged p53 protein, ranging from 3-200 ng/ml, were made in blocking buffer and used as standards.
Plates were washed twice with PBS/0.05% Tween 20 and blocking buffer or standards were added at 80 μl/well. To the standards, 20 μl of lysis buffer was added. The samples were added to the other wells at 20 μl lysate/well. After an overnight incubation at 4° C., plates were washed twice with PBS/0.05% Tween 20. Aliquots of 100 μl secondary polyclonal antibody p53(FL-393) (Tebubio, sc-6243) at a concentration of 1 μg/ml in blocking buffer were added to each well and allowed to adhere for 2 hours at room temperature. Plates were washed three times with PBS/0.05% Tween 20. Detection antibody anti-rabbit HRP (sc-2004, Tebubio) at 0.04 μg/ml in PBS/1% BSA was added and incubated for 1 hour at room temperature. Plates were washed three times with PBS/0.05% Tween 20 and 100 μl of substrate buffer was added (substrate buffer was prepared shortly before use by adding 1 tablet of 10 mg o-phenylene diamine (OPD) from Sigma and 125 μl 3% H2O2 to 25 ml OPD buffer: 35 mM citric acid, 66 mM Na2HPO4, pH5.6). After 5 to 10 minutes, colour reaction was stopped by adding 50 μl stop buffer (1 M H2SO4) per well. The absorbance at dual wavelengths of 490/655 nm was measured using a Biorad micro plate reader and the results were then analyzed.
For each experiment, controls (containing no drug) and a blank incubation (containing no cells or drugs) were run in parallel. The blank value was subtracted from all control and sample values. For each sample, the value of p53 (in absorbance units) was expressed as the percentage of the value for p53 present in the control. […]

[2] = tested on: Male NMRI mice; assay: Ro-4-1284 antagonism in mice; assay type: in vivo; conditions: 80 mg/kg oral administration, 3 animals
Description: The test is a modification of a procedure described by Colpaert et al. (1975).^3 Male NMRI mice (22±3 g) were housed in macrolon observation cages (L×W×H: 11×12×17 cm; n=3 per cage). At the start of the experiments immediately before test compound administration, the initial body temperature of the mice was measured with a precision of 0.1° C. by inserting the thermo-sensitive probe (1.0 mm diameter) of an electric thermometer (Comark) to a constant depth of 3 cm into the esophagus until a stable reading was obtained. The right eye pupil diameter was measured with a graduated microscope and expressed in 1/24 mm units. Fifteen min after test compound administration, the mice were challenged with Ro-4-1284 (10 mg/kg, s.c.). Ro-4-1284 is a reserpine-like vesicular monoamine transport (VMAT-2) inhibitor, which rapidly depletes secretory vesicles.^3,4 Fifteen, 30 and 60 min after challenge, the mice were scored for palpebral opening (0, 1, 2, 3, 4, 5) and locomotor activity (−1, 0, 1, 2, 3). At the 60-min interval, immediately after the scoring of overt behavior, the right eye pupil diameter and the esophageal temperature were measured again. Abnormal phenomena such as intensive sniffing, chewing, rearing, hyperemia, piloerection, salivation, tremors, convulsions and death were noted (the latter phenomena were also noted when occurring before Ro-4-1284 administration). Criteria for drug-induced effects: reversal of ptosis: palpebral opening score >1 at 15, 30 or 60 min (2.7, 0.5 and 0% false positive controls, respectively; n>350); induction of prostration: score −1 for locomotion at 15, 30 or 60 min (never observed in controls); reversal of hypomotility: score >0 for locomotion at 15, 30 and 60 min (2.2, 0.8 and 0% false positive controls, respectively); reversal of miosis: pupil diameter >5 units at 60 min (0.8% false positives); potentiation of hypothermia: temperature decrease (over the 1-h time interval)>9.0° C. (1.4% false positives); reversal of hypothermia: temperature decrease <3.0° C. (1.8% false positives).
According to the standard procedure, R0-4-1284 is injected 15 min following subcutaneous or oral administration and observations start 15 min later. Doses are initially given to 3 animals. When at least 2 out of the 3 animals show activity for at least one of the observations, the compound is considered active.

Compound | minimal effective concentration [1] [µM] | activity on reversal of hypomotility [2] | activity on reversal of miosis [2] | activity on reversal of ptosis [2] | p53-elisa LAD (lowest dose giving at least 140% of the value for p53 present in the control) [1] [µM]
C=C(C)c1cccc2c(CCNc3ccc(Nc4ccnc5c4CCC5OC)cc3)c[nH]c12 (stereo not drawn) [Compound 7] | 0.3 | did not show activity | did not show activity | did not show activity | –
Cc1cc(Nc2ccnc3c2CCC3O)ccc1NCCc1c[nH]c2c(C(C)(C)O)cccc12 (stereo not drawn) [Compound 18] | – | did not show activity | did not show activity | did not show activity | 0.03
Cc1cc(Nc2ccnc3c2CCC3O)ccc1NCCc1c[nH]c2c(C(C)(C)O)cccc12 (stereo not drawn) [Compound 20] | 0.03 | did not show activity | did not show activity | did not show activity | –
